Data as given in ChEMBL document CHEMBL4680157, “Design, synthesis and biological evaluation of novel TRβ selective agonists sustained by ADME-toxicity analysis” (Eur J Med Chem, 2020).

Columns and labels:
[1] = Toxicity in F344 rat assessed as increase in heart weight at 50 to 100 ug per 100 g body weight, ig administered daily for 3 days; details: in vivo, po, 72 h, dose 50-100 µg, time 3 day
[2] = Toxicity in F344 rat assessed as increase in heart and body weight ratio at 50 to 100 ug per 100 g body weight, ig administered daily for 3 days; details: in vivo, po, 72 h, dose 50-100 µg, time 3 day
[3] = Toxicity in F344 rat assessed as reduction in liver and body weight ratio at 50 to 100 ug per 100 g body weight, ig administered daily for 3 days; type: tissue-based; details: in vivo, po, 72 h, dose 50-100 µg, time 3 day
[4] = Toxicity in F344 rat assessed as effect on serum AST/GOT level at 20 ug per 100 g of body weight, ig administered daily for 3 days (reference value: 153 +/- 11 U/L); details: in vivo, po, 72 h, dose 20 µg, time 3 day
[5] = Toxicity in F344 rat assessed as effect on serum ALT/GPT level at 20 ug per 100 g of body weight, ig administered daily for 3 days (reference value: 46 +/- 4 U/L); details: in vivo, po, 72 h, dose 20 µg, time 3 day
[6] = Toxicity in F344 rat assessed as effect on serum bilirubin level at 20 ug per 100 g of body weight, ig administered daily for 3 days (reference value: 1.4 +/- 0.2 mg/dl); details: in vivo, po, 72 h, dose 20 µg, time 3 day
[7] = Toxicity in F344 rat assessed as effect on serum glucose level at 20 ug per 100 g of body weight, ig administered daily for 3 days (reference value: 151 +/- 13.5 mg/dl); details: in vivo, po, 72 h, dose 20 µg, time 3 day
[8] = Toxicity in F344 rat assessed as effect on serum cholesterol level at 20 ug per 100 g of body weight, ig administered daily for 3 days (reference value: 67.2 +/- 2.5 mg/dl); details: in vivo, po, 72 h, dose 20 µg, time 3 day
[9] = Toxicity in F344 rat assessed as effect on serum triglycerides level at 20 ug per 100 g of body weight, ig administered daily for 3 days (reference value: 86.8 +/- 10.4 mg/dl); details: in vivo, po, 72 h, dose 20 µg, time 3 day
[10] = Cytotoxicity against human U2OS cells assessed as cell growth inhibition at 10 uM after 24 hrs relative to control; type: cell-based
[11] = Cytotoxicity against human U2OS cells assessed as cell growth inhibition at 10 uM after 48 hrs relative to control; type: cell-based
[12] = Cytotoxicity against human HEK293 cells assessed as cell growth inhibition at 10 uM after 24 hrs relative to control; type: cell-based
[13] = Cytotoxicity against human HEK293 cells assessed as cell growth inhibition at 10 uM after 48 hrs relative to control; type: cell-based
[14] = Cytotoxicity against human hTERT cells assessed as cell growth inhibition at 10 uM after 24 hrs relative to control; type: cell-based, hTERT-BJ
[15] = Cytotoxicity against human hTERT cells assessed as cell growth inhibition at 10 uM after 48 hrs relative to control; type: cell-based, hTERT-BJ
[16] = Cytotoxicity against human MCF7 cells assessed as cell growth inhibition at 10 uM after 24 hrs relative to control; type: cell-based
[17] = Cytotoxicity against human MCF7 cells assessed as cell growth inhibition at 10 uM after 48 hrs relative to control; type: cell-based
CYP1A2 = molecular target: T1, CYP1A2 (Homo sapiens, UniProt P05177); assay: Inhibition of CYP1A2 (unknown origin) at 10 uM relative to control; type: ADME
T1 sequence (P05177 whole entry): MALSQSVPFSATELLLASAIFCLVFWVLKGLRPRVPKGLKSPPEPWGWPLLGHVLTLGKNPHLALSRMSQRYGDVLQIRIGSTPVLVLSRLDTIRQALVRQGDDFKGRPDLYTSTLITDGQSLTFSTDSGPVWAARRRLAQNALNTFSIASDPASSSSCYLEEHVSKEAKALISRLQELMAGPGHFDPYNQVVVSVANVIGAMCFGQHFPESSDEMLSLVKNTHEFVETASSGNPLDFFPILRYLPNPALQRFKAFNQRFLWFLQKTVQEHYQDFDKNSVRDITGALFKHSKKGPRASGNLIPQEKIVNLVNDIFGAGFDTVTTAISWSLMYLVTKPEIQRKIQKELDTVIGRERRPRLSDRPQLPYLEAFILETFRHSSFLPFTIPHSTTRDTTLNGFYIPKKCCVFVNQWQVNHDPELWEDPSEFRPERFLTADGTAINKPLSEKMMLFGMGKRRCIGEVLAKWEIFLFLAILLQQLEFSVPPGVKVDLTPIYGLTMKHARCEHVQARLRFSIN

CYP2C9 = CYP2C9 (Homo sapiens, UniProt P11712); assay: Inhibition of CYP2C9 (unknown origin) at 10 uM relative to control; type: ADME
CYP2C19 = CYP2C19 (Homo sapiens, UniProt P33261); assay: Inhibition of CYP2C19 (unknown origin) at 10 uM relative to control; type: ADME
CYP2D6 = CYP2D6 (Homo sapiens, UniProt P10635); assay: Inhibition of CYP2D6 (unknown origin) at 10 uM relative to control; type: ADME
CYP3A4 = CYP3A4 (Homo sapiens, UniProt P08684); assay: Inhibition of CYP3A4 (unknown origin) at 10 uM relative to control; type: ADME
hERG (KCNH2) = hERG (KCNH2) (Homo sapiens, UniProt Q12809); assay: Inhibition of human ERG at 10 uM by fluorescence polarization assay relative to control
SIRT7 = molecular target: T2, SIRT7 (Homo sapiens, UniProt Q9NRC8); assay: Inhibition of SIRT7 (unknown origin) at 10 uM relative to control
T2 sequence (Q9NRC8 whole entry): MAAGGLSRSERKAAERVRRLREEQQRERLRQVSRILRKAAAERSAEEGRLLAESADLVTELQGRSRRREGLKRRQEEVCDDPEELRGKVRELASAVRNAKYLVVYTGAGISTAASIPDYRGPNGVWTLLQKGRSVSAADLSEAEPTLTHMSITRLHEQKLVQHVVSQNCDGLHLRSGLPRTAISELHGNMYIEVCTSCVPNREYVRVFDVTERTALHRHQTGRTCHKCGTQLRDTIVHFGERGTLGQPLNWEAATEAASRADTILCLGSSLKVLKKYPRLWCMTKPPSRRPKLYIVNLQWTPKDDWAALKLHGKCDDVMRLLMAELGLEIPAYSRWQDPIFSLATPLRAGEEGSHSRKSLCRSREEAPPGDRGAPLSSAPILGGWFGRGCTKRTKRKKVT

HDAC4 = HDAC4 (Homo sapiens, UniProt P56524); assay: Inhibition of HDAC4 (unknown origin) at 10 uM relative to control
HDAC6 = molecular target: T3, HDAC6 (Homo sapiens, UniProt Q9UBN7); assay: Inhibition of HDAC6 (unknown origin) at 10 uM relative to control
T3 sequence (Q9UBN7 whole entry): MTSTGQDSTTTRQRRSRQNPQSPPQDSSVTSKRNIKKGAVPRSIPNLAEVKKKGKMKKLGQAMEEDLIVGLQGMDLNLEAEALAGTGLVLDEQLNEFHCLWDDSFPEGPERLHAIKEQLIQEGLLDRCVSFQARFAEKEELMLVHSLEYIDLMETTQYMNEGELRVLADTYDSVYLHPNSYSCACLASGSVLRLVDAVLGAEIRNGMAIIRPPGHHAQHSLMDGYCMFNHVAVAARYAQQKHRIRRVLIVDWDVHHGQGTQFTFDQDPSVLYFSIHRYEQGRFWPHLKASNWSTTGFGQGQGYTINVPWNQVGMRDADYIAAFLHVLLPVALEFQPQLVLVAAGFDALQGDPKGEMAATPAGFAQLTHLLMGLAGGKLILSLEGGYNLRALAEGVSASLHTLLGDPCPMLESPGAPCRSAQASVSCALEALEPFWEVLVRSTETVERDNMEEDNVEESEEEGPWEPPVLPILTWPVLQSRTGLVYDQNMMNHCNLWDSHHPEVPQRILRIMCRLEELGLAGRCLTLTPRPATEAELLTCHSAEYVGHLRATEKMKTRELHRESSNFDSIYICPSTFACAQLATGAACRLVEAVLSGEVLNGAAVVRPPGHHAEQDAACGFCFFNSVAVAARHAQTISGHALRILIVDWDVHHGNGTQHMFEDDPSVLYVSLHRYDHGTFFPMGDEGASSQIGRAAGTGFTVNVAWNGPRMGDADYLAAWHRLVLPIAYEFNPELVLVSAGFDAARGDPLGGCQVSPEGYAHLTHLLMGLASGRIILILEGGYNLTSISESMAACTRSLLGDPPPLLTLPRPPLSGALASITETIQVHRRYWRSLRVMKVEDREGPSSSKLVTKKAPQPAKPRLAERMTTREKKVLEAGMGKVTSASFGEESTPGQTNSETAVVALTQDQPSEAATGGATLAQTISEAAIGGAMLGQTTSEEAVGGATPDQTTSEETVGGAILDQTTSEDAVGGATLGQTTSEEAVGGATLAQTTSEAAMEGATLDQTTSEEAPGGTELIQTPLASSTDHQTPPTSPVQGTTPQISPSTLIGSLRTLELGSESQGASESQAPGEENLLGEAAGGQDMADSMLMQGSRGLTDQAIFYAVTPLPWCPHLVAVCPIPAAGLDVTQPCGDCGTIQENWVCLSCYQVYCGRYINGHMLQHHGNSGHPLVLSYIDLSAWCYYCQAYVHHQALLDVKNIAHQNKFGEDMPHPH

HDAC8 = molecular target: T4, HDAC8 (Homo sapiens, UniProt Q9BY41); assay: Inhibition of HDAC8 (unknown origin) at 10 uM relative to control
T4 sequence (Q9BY41 whole entry): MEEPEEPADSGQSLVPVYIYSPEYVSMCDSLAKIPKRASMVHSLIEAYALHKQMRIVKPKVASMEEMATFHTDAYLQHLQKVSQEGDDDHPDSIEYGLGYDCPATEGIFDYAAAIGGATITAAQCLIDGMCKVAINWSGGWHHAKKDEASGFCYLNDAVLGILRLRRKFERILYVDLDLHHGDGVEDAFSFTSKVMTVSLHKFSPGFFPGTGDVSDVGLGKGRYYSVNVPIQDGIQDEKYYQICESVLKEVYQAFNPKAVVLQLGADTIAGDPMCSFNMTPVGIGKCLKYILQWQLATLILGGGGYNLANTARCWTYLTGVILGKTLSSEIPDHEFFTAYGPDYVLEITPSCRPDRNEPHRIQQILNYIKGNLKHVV

HDAC9 = HDAC9 (Homo sapiens, UniProt Q9UKV0); assay: Inhibition of HDAC9 (unknown origin) at 10 uM relative to control
[18] = molecular target: 3',5'-cyclic-AMP phosphodiesterase 4C (Homo sapiens) (UniProt Q08493); assay: Inhibition of PDE4C1 (unknown origin) at 10 uM relative to control
Aurora B = Aurora B (Homo sapiens, UniProt Q96GD4); assay: Inhibition of Aurora B (unknown origin) at 10 uM relative to control

HDAC4, sequence (P56524 whole entry): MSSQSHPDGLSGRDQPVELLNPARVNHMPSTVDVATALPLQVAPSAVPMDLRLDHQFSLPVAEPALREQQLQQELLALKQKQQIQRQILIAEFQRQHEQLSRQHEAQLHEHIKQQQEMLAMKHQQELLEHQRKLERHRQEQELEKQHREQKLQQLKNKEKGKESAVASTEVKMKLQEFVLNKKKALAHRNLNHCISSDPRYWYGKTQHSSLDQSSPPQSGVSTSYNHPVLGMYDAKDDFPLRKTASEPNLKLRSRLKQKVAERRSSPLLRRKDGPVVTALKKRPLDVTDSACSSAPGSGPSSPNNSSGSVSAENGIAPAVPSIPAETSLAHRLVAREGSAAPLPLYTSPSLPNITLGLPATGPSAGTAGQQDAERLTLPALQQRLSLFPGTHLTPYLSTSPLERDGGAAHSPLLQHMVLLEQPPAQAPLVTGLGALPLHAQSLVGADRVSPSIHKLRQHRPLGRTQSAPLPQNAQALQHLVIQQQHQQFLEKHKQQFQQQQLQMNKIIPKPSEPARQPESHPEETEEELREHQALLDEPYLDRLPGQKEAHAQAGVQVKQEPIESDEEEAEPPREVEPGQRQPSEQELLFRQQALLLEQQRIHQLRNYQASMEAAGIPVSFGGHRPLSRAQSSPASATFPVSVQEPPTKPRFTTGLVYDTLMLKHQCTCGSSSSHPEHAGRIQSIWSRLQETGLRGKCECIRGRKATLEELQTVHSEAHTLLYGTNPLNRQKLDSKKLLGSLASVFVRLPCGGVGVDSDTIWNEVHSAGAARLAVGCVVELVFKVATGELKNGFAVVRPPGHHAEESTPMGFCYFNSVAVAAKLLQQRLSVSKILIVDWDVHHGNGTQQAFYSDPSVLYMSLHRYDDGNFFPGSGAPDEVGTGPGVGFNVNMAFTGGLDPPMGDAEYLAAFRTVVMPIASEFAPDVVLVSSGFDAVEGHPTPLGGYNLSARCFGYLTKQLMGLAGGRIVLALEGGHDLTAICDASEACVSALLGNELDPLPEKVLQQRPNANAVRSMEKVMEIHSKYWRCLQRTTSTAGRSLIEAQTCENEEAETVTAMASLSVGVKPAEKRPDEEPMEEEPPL
CYP3A4, sequence (P08684 whole entry): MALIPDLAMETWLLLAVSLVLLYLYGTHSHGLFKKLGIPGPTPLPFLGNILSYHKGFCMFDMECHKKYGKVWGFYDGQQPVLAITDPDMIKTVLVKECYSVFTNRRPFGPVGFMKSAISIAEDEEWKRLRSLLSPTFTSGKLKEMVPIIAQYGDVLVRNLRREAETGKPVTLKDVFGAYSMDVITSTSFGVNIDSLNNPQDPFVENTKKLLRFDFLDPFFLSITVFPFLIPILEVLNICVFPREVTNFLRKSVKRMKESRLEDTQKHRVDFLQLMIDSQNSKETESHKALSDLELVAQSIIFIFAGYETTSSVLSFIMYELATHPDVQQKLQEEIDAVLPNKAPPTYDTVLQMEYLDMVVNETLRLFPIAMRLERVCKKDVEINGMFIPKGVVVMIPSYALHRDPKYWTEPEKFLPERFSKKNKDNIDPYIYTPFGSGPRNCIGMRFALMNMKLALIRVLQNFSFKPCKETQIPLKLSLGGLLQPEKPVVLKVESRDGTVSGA
hERG (KCNH2), sequence (Q12809 whole entry): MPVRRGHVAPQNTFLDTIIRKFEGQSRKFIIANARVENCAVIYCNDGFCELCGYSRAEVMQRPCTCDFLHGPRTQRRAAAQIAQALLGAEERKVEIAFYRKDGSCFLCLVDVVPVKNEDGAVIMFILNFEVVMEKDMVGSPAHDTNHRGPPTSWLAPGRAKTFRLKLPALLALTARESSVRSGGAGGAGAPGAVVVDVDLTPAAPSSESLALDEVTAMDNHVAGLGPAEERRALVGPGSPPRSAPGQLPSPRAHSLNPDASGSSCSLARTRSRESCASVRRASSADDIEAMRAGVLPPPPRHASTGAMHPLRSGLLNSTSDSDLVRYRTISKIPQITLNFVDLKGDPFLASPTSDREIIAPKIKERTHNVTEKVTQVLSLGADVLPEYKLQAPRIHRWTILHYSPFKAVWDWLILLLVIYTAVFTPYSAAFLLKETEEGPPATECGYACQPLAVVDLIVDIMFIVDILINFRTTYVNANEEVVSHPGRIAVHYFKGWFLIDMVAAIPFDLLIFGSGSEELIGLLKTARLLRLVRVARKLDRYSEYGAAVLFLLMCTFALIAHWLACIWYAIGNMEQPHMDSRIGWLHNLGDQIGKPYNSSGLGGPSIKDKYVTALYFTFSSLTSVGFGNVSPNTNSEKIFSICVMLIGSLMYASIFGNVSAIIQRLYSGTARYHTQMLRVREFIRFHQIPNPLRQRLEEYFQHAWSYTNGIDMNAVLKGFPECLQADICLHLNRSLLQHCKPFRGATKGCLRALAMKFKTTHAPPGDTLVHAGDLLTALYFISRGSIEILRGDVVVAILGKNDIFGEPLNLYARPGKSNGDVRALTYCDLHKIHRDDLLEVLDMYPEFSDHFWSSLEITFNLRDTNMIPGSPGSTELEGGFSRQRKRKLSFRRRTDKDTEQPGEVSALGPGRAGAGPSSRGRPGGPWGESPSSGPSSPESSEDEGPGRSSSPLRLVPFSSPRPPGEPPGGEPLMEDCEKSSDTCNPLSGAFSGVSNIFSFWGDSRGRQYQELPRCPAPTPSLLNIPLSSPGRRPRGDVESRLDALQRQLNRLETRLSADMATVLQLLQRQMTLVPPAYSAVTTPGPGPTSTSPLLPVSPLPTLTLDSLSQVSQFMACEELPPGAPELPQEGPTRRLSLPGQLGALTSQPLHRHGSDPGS
CYP2C19, sequence (P33261 whole entry): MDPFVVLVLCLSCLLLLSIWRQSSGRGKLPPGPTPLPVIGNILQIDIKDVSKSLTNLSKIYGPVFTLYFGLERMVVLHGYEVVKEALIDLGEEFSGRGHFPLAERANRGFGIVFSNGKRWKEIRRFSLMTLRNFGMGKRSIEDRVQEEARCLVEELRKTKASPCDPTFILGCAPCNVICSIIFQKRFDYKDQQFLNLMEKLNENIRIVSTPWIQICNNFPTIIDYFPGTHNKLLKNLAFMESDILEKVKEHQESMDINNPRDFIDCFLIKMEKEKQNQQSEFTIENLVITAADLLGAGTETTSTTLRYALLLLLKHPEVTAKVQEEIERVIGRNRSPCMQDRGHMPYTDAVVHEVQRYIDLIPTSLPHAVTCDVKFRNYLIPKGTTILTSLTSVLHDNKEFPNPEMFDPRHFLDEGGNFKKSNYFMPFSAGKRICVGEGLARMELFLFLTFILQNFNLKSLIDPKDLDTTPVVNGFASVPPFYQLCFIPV
3',5'-cyclic-AMP phosphodiesterase 4C (Homo sapiens), sequence (Q08493 whole entry): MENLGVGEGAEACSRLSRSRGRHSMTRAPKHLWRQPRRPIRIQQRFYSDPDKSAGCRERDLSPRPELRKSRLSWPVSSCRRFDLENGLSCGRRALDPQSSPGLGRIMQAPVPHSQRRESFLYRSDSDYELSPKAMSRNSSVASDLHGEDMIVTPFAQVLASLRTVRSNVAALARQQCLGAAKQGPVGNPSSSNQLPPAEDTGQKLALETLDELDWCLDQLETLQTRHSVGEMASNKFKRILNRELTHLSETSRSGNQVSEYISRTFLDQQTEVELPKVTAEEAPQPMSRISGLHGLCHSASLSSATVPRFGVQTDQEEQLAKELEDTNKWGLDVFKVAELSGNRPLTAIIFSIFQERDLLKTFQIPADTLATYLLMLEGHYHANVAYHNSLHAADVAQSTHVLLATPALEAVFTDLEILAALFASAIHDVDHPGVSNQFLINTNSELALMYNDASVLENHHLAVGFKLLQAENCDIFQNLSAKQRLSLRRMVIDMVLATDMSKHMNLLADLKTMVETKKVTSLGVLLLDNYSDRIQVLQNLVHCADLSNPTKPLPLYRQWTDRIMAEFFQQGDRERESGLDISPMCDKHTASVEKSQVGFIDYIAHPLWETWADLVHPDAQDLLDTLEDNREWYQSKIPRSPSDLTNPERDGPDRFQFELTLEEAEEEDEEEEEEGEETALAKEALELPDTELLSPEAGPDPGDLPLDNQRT
HDAC9, sequence (Q9UKV0 whole entry): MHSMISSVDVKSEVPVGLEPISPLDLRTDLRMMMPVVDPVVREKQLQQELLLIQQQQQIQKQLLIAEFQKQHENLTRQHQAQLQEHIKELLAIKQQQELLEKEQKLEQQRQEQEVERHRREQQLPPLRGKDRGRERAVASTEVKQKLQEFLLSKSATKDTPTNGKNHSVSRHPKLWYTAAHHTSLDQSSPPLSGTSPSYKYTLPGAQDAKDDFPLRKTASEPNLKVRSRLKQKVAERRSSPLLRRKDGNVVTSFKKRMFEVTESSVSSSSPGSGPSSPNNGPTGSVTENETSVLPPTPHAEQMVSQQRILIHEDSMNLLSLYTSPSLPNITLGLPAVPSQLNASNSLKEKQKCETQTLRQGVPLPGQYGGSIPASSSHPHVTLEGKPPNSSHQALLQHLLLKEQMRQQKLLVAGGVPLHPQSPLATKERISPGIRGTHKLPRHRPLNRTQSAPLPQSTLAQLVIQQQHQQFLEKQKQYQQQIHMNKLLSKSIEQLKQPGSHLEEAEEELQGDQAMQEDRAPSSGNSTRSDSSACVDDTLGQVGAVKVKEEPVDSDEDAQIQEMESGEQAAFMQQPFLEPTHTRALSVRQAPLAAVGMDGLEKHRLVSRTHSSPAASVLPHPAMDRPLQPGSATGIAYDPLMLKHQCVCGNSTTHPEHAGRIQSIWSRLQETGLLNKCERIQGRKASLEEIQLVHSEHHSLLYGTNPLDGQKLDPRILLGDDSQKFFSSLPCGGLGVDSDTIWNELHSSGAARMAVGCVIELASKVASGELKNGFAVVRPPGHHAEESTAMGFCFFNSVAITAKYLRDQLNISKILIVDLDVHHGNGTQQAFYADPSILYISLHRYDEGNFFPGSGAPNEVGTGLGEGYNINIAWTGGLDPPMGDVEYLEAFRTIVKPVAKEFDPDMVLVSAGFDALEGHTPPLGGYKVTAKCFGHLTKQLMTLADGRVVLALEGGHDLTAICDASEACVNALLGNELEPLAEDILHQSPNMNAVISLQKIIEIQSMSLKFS

inhibition at 10 µM (CYP1A2) | inhibition at 10 µM (CYP2C9) | inhibition at 10 µM (CYP2C19) | inhibition at 10 µM (CYP2D6) | inhibition at 10 µM (CYP3A4) | inhibition at 10 µM (SIRT7) | inhibition at 10 µM (HDAC4) | inhibition at 10 µM (HDAC6) | inhibition at 10 µM (HDAC8) | inhibition at 10 µM (HDAC9) | inhibition [18] | SMILES | inhibition at 24 h, 10 µM [10] | inhibition at 48 h, 10 µM [11] | inhibition at 24 h, 10 µM [12] | inhibition at 48 h, 10 µM [13] | inhibition at 24 h, 10 µM [14] | inhibition at 48 h, 10 µM [15] | inhibition at 24 h, 10 µM [16] | inhibition at 48 h, 10 µM [17] | inhibition at 10 µM (hERG (KCNH2)) | other results
– | – | – | – | – | – | – | – | – | – | – | N[C@@H](Cc1cc(I)c(Oc2ccc(O)c(I)c2)c(I)c1)C(=O)O [LIOTHYRONINE] | – | – | – | – | – | – | – | – | – | Activity [1]: Toxic; Activity [2]: Toxic; Activity [3]: Toxic; Activity [4]: 159 U/L; Activity [5]: 53 U/L; Activity [6]: 1.4 mg/dL; Activity [7]: 139 mg/dL; Activity [8]: 65.2 mg/dL; Activity [9]: 90.2 mg/dL
> 91% | > 91% | > 91% | 51% | > 91% | < 50% | < 50% | < 50% | < 50% | < 50% | < 50% | CCNc1ccc(Cc2ccc(OCC(=O)O)cc2)cc1C(C)C | < 50% | < 50% | < 50% | < 50% | 51% | < 50% | 65% | 51% | > 91% | inhibition at 10 µM (Aurora B): < 50%
< 50% | < 50% | < 50% | < 50% | < 50% | < 50% | < 50% | < 50% | < 50% | < 50% | < 50% | Cc1cc(OCC(=O)O)cc(C)c1Cc1ccc(N)cc1 | < 50% | < 50% | < 50% | < 50% | < 50% | < 50% | < 50% | < 50% | < 25% | inhibition at 10 µM (Aurora B): < 50%
